Test results published in ChEMBL document CHEMBL1201862, “PubChem BioAssay data set” (2004).
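Protocol summary: plate cells (96-well), add compound at 5 concentrations, incubate 48 h, interpolate endpoints linearly. GI50: concentration for 50% inhibition of growth.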 Calls of active or inactive are those of the source. No stated cut-off is given here; in the data, active = GI50 up to about 1.1 µM and inactive = higher.

Columns and labels:
Experiment in all cases: NCI-60 cell line screen, 48 h
MDA-MB-231 = system: MDA-MB-231
MCF7 = system: MCF7
HL-60 = system: HL-60
HT-29 = system: HT-29
PC-3 = system: PC-3
U-251 = system: U-251
MDA-MB-435 = system: MDA-MB-435
SW-620 = system: SW-620
SK-OV-3 = system: SK-OV-3
OVCAR-4 = system: OVCAR-4
COLO 205 = system: COLO 205
K562 = system: K562
UACC-62 = system: UACC-62
M14 = system: M14
SR = system: SR
A549 = system: A549
HOP-92 = system: HOP-92
SNB-19 = system: SNB-19
NCI-H226 = system: NCI-H226
IGROV-1 = system: IGROV-1

Row | Structure (SMILES) | GI50 (MDA-MB-231) | GI50 (MCF7) | GI50 (HL-60) | GI50 (HT-29) | GI50 (PC-3) | GI50 (U-251) | GI50 (MDA-MB-435) | GI50 (SW-620) | GI50 (SK-OV-3) | GI50 (OVCAR-4) | GI50 (COLO 205) | GI50 (K562) | GI50 (UACC-62) | GI50 (M14) | GI50 (SR) | GI50 (A549) | GI50 (HOP-92) | GI50 (SNB-19) | GI50 (NCI-H226) | GI50 (IGROV-1)
1 | O=C1CN2CCN(CC2)CC(=O)Nc2ccc(cc2)S(=O)(=O)c2ccc(cc2)NC(=O)CN2CCN(CC2)CC(=O)Nc2ccc(cc2)S(=O)(=O)c2ccc(cc2)N1 | 16.1 µM (inactive) | 18.1 µM (inactive) | 0.557 µM (active) | 15 µM (inactive) | > 100 µM (inactive) | 13.7 µM (inactive) | 35.2 µM (inactive) | 14.1 µM (inactive) | > 100 µM (inactive) | > 100 µM (inactive) | 40.7 µM (inactive) | 15.8 µM (inactive) | 40.1 µM (inactive) | 25.4 µM (inactive) | 4.56 µM (inactive) | > 63.2 µM (inactive) | > 100 µM (inactive) | > 100 µM (inactive) | 64.7 µM (inactive) | 13.8 µM (inactive)
2 | CCCCCC(O)C(O)CCC[C@H](O)[C@H]1CC[C@H]([C@H]2CC[C@H]([C@H](O)CCCCCCCCCCCCC3=C[C@H](C)OC3=O)O2)O1 (stereo partly specified) | 4.32 µM (inactive) | 1.9 µM (inactive) | 1.57 µM (inactive) | 2.63 µM (inactive) | 2.94 µM (inactive) | 3.73 µM (inactive) | 1.5 µM (inactive) | 3.44 µM (inactive) |  | 5.11 µM (inactive) | 3.98 µM (inactive) | 1.38 µM (inactive) | 1.71 µM (inactive) | 3.49 µM (inactive) | 4.15 µM (inactive) | 2.21 µM (inactive) | 23.4 µM (inactive) | 3.14 µM (inactive) | 2.49 µM (inactive) | 3.24 µM (inactive)
3 | CCC(C)NC(=S)N/N=C(\C)c1nc2cccnc2[nH]1 (stereo unspecified) | 6.95 µM (inactive) | 2.1 µM (inactive) | 4.92 µM (inactive) | 4.49 µM (inactive) | 8.85 µM (inactive) | 9.14 µM (inactive) | 31.3 µM (inactive) | 4.52 µM (inactive) | 10.3 µM (inactive) | 4.91 µM (inactive) | 3.54 µM (inactive) | 2.24 µM (inactive) | 6.11 µM (inactive) | 12.7 µM (inactive) | 3.85 µM (inactive) | 14.9 µM (inactive) | 7.18 µM (inactive) | 32.4 µM (inactive) | 4.42 µM (inactive) | 12.2 µM (inactive)
4 | COc1ccc(OC)c(N2C(=O)CSC2c2cc(OC)c(OC)c(OC)c2)c1 (stereo unspecified) | > 100 µM (inactive) | 71.1 µM (inactive) | > 100 µM (inactive) | > 100 µM (inactive) | > 100 µM (inactive) | > 100 µM (inactive) | 29.8 µM (inactive) | > 100 µM (inactive) | > 100 µM (inactive) | > 100 µM (inactive) | > 100 µM (inactive) | 83.8 µM (inactive) | > 100 µM (inactive) | > 100 µM (inactive) | 46 µM (inactive) | > 100 µM (inactive) | > 100 µM (inactive) | > 100 µM (inactive) | > 100 µM (inactive) | > 100 µM (inactive)
5 | Cc1ccc2c(=O)c3c(O)c4c(cc3n(C)c2c1)OC(C)(C)C=C4 | > 10 µM (inactive) | > 10 µM (inactive) | > 10 µM (inactive) | > 10 µM (inactive) | > 10 µM (inactive) | > 10 µM (inactive) | > 10 µM (inactive) | > 10 µM (inactive) | > 10 µM (inactive) | > 10 µM (inactive) | > 10 µM (inactive) | > 10 µM (inactive) | > 10 µM (inactive) | > 10 µM (inactive) | > 10 µM (inactive) | > 10 µM (inactive) | > 10 µM (inactive) | > 10 µM (inactive) | > 10 µM (inactive) | > 10 µM (inactive)
6 | C=CCOc1ccc(C(=N/NC(=O)c2ccccc2)/N=N/c2ccccc2)cc1OC | 70.6 µM (inactive) | > 100 µM (inactive) | 37.8 µM (inactive) | 46.5 µM (inactive) | 79.1 µM (inactive) | 79.4 µM (inactive) | > 100 µM (inactive) | > 100 µM (inactive) |  | 89.9 µM (inactive) | 55 µM (inactive) |  | 71.1 µM (inactive) | > 100 µM (inactive) | 77.1 µM (inactive) | > 100 µM (inactive) | 30.1 µM (inactive) | > 100 µM (inactive) | 60.5 µM (inactive) | > 100 µM (inactive)
7 | COc1ccc(C(=O)c2ccc(-n3cc(/C=C/[N+](=O)[O-])c4ccccc43)cc2)cc1 | 19.3 µM (inactive) | 9.08 µM (inactive) | 13.7 µM (inactive) | 23.9 µM (inactive) | 18.8 µM (inactive) | 11.3 µM (inactive) | 16.2 µM (inactive) | 3.69 µM (inactive) | 23.6 µM (inactive) | 29.4 µM (inactive) | 32.3 µM (inactive) | 6.53 µM (inactive) | 14.4 µM (inactive) | 29 µM (inactive) | 8.81 µM (inactive) | 80.4 µM (inactive) | 17.9 µM (inactive) | 30.2 µM (inactive) | > 51.5 µM (inactive) | 10.8 µM (inactive)
8 | O=C(O)c1ccccc1/C=N/N=C1c2ccccc2-c2ccccc21 | 59 µM (inactive) | 31.2 µM (inactive) | 28.8 µM (inactive) | 29 µM (inactive) | 30.3 µM (inactive) | 22 µM (inactive) | 29.9 µM (inactive) | 32.4 µM (inactive) | 44.9 µM (inactive) | 35.2 µM (inactive) | 32.1 µM (inactive) | 32.1 µM (inactive) | 44.9 µM (inactive) | 42.2 µM (inactive) | 27.3 µM (inactive) | 31.6 µM (inactive) | 35.3 µM (inactive) | 39.9 µM (inactive) | 20.8 µM (inactive) | 43.3 µM (inactive)
9 | CC(C)[C@H](NC(=O)OCc1ccccc1)C(=O)N[C@H](/C=C/C(=O)OC(C)(C)C)CO | > 100 µM (inactive) | > 100 µM (inactive) | 57.1 µM (inactive) | > 100 µM (inactive) | 68.1 µM (inactive) |  | > 100 µM (inactive) | 92.9 µM (inactive) | > 100 µM (inactive) | > 100 µM (inactive) | 80.4 µM (inactive) |  | > 100 µM (inactive) | > 100 µM (inactive) | > 100 µM (inactive) | > 100 µM (inactive) | > 100 µM (inactive) | > 100 µM (inactive) | > 100 µM (inactive) | > 100 µM (inactive)
10 | O=c1[nH]nc(-c2ccccc2)c2[nH]c3c(c12)Cc1ccccc1-3 | 0.378 µM (active) | 0.158 µM (active) | 0.665 µM (active) | 1.4 µM (inactive) | 4.47 µM (inactive) | 3.64 µM (inactive) | 0.386 µM (active) | 2.06 µM (inactive) | 6.68 µM (inactive) | 3.79 µM (inactive) | 1.61 µM (inactive) | 0.839 µM (active) | 0.299 µM (active) | 4.06 µM (inactive) | 0.069 µM (active) | 21.2 µM (inactive) | 1.67 µM (inactive) | 7.06 µM (inactive) | 3.9 µM (inactive) | 0.723 µM (active)
11 | C[C@]12CCC(=O)C=C1CC[C@@H]1[C@@H]2CC[C@]2(C)C(=O)/C(=C\c3ccccc3)C[C@@H]12 | > 50.8 µM (inactive) | 19.1 µM (inactive) | 9.79 µM (inactive) | 19.6 µM (inactive) | 12.8 µM (inactive) | 29.4 µM (inactive) | 24.9 µM (inactive) | 22.8 µM (inactive) | 72.3 µM (inactive) | 41.9 µM (inactive) | 24.2 µM (inactive) | > 100 µM (inactive) | 23.4 µM (inactive) | 22.4 µM (inactive) | 4.53 µM (inactive) | 22.6 µM (inactive) | 23.2 µM (inactive) | 60.5 µM (inactive) | 2.38 µM (inactive) | 51.3 µM (inactive)
12 | O=C(Nc1nc2ncn(CCOC(=O)c3ccccc3)c2c(=O)[nH]1)c1ccccc1 | 3.79 µM (inactive) | 4.4 µM (inactive) | 2.59 µM (inactive) | 3.68 µM (inactive) | 47.2 µM (inactive) | 7.24 µM (inactive) | 2.48 µM (inactive) | 4.98 µM (inactive) | > 50.7 µM (inactive) |  | 8.47 µM (inactive) | 3.05 µM (inactive) | 9.12 µM (inactive) | 15.3 µM (inactive) | 5.35 µM (inactive) | 8.09 µM (inactive) | 25.6 µM (inactive) | 17.3 µM (inactive) | 28.4 µM (inactive) | 21 µM (inactive)
13 | COc1cccc(N2C(=O)C3c4[nH]c5ccc(C)cc5c4C4CCC(C)CC4C3C2=O)c1 (stereo unspecified) | 26.5 µM (inactive) | > 100 µM (inactive) | 10.6 µM (inactive) | > 100 µM (inactive) | > 100 µM (inactive) | 51.3 µM (inactive) | > 100 µM (inactive) | > 100 µM (inactive) | 30.3 µM (inactive) |  | > 100 µM (inactive) | 30.3 µM (inactive) | 30.3 µM (inactive) | > 100 µM (inactive) | > 10 µM (inactive) | > 100 µM (inactive) | 34 µM (inactive) | 73.3 µM (inactive) | > 100 µM (inactive) | 89.5 µM (inactive)
14 | O=C(O)/C=C/C(=O)O [FUMARIC ACID] | > 100 µM (inactive) | > 100 µM (inactive) | > 100 µM (inactive) | > 100 µM (inactive) | > 100 µM (inactive) | > 100 µM (inactive) | > 100 µM (inactive) | > 100 µM (inactive) |  | > 100 µM (inactive) | > 100 µM (inactive) | > 100 µM (inactive) |  | > 100 µM (inactive) | > 100 µM (inactive) | > 100 µM (inactive) | > 100 µM (inactive) | > 100 µM (inactive) | > 100 µM (inactive) | > 100 µM (inactive)
